Test results: patent US8741592B2, “Methods of screening an agent for an activity in an isolated eye of a teleost” (Phylonix Pharmaceuticals, Inc., priority 2007, dated 2014)
Where “and” joins values, the source holds several entries; their conditions need not be identical. Identical values can stand only once. Entries after “also recorded” stand apart in the source; their conditions may differ. Blank lines part the entries; values can stand above or below the compound they belong to.

Key:
zebrafish eye (retina) = format: in vivo
CoCl2 induced CNV [1] = test: Eye specific angiogenesis ELISA (eZ-CNV ELISA) on isolated eyes; format: in vivo, zebrafish; details: co-treatment with 0.1 mg/ml CoCl2 for 4 days, 4 eyes/well
Protocol: Calculation of Drug Effects. To reduce the variability contributed by substrate and to compare results from different assays performed on different days, drug effects were normalized to % inhibition on EC proliferation. Chemiluminescent signal (CU) in each well (containing 4 eyes) was measured and used to calculate drug effect. […] In addition, to estimate non-specific background signal, 24 C were processed without antibody incubation; the mean value of which was subtracted from each CU measurement. Mean CU of D was used as 100% control. Drug effect was calculated following formula (a). %Inhibition=(1−(CU(drug treated)/CU(control)))×100% (a)
Based on the visual assessment above, co-treatment chosen as the treatment method to investigate the effects of the anti-angiogenic drugs Celebrex and Genistein in CoCl2 induced CNV in zebrafish using the eZ-CNV™ ELISA. Drug effects were calculated using the method described in Materials and Methods, infra. […] Based on the dose response curve, the optimal concentration for Celebrex was 20 μM and for Genistein was 0.0001 μM.
Methods for Dissociating Eyes from Whole Zebrafish. Zebrafish were processed for whole mount immunochemical staining with either Alexa 488 or HRP conjugated Phy-V following standard procedures. After extensive washing, stained zebrafish were incubated with 150 U/ml collagenase at 37° C. for 45 minutes; eyes were then dissociated from the whole zebrafish by gentle pipetting.
Eye Specific Angiogenesis ELISA (eZ-CNV™ ELISA). Isolated eyes of whole mount Phy-V-HRP stained zebrafish were placed in 96-well microplates, 4 eyes/well; 150 μl/well PS-atto (Lumigen, Southfield, Mich.), chemiluminescence HRP substrate, was added and the chemiluminescence signal from the enzymatic product was detected by Synergy HT microplate reader (BioTeK Instruments, Inc., Winooski, Vt.).

CoCl2 induced CNV [2] = test: Effect of anti-angiogenic drugs on CoCl2 induced CNV, visual assessment of Phy-V stained whole zebrafish; format: in vivo; details: for Mean ± SE (% CNV) / % CNV (per experiment) / CNV zebrafish (number per experiment): co-treatment with 0.1 mg/ml CoCl2, 24 hpf to 5 dpf; for abnormal neovascularization in the choroidal vessel plexus: co-treatment with CoCl2, 5 dpf zebrafish
Protocol: 24 hpf zebrafish were treated with 0.1 mg/ml CoCl2 continuously for 4 days, and various concentrations of Celebrex or Genistein were incubated with the zebrafish. At the 5 dpf stage, zebrafish were fixed and stained with zebrafish angiogenic-vessel-specific antibody, Phy-V. Several treatment strategies were assessed: (1) pre-treatment (high concentration of drug added for 4 hours and withdrawn before CoCl2 induction); (2) co-treatment (drugs were co-treated with CoCl2); and (3) post-treatment (drugs were added 24 hours after CoCl2).
The drug effects on CNV zebrafish were assessed visually using microscopic examination of Phy-V stained whole zebrafish. % CNV inhibition was calculated by dividing the total number of CNV zebrafish by the total number of zebrafish per experiment (Tables II and III). The percentage of CNV zebrafish was lowest after co-treatment with Celebrex.
Celebrex or Genistein Co-Treatment. Celebrex and Genistein dissolved in DMSO were added directly to fish water, the final concentration of DMSO for Celebrex and Genistein was 0.8%. For pre-treatment, 24 hpf zebrafish were incubated with high concentrations of each drug at 28° C. for 4 hours; the drugs were washed off and zebrafish were treated with 0.1 mg/ml CoCl2. For co-treatment, each drug was added simultaneously with 0.1 mg/ml CoCl2. For post-treatment, each drug was added 24 hours after CoCl2 addition. After drug treatment, zebrafish were washed and processed for whole mount immunochemical staining
Whole Mount Immunofluorescence Staining. Zebrafish were fixed by Dent's fixative (DMSO/methanol=⅓) and processed for whole mount immunochemical staining following standard procedures (Westerfield, 1993, supra). Alexa 488 conjugated Phy-V antibody (Phylonix), which specifically labels activated endothelial cells, was used to stain zebrafish, and followed by examination by fluorescence microscopy.

HIF-1α = tested on: HIF-1α; design: key: ↑: Up arrows indicate up-regulation; ↓: down arrows indicate down-regulation; —: horizontal line indicates no change; details: zebrafish, in vivo
PGK = tested on: PGK; design: key: ↑: Up arrows indicate up-regulation; ↓: down arrows indicate down-regulation; —: horizontal line indicates no change; details: zebrafish, in vivo
VEGF = tested on: VEGF; design: key to VEGF expression (RT-PCR): ↑: Up arrows indicate up-regulation; ↓: down arrows indicate down-regulation; —: horizontal line indicates no change; details: zebrafish, in vivo
zebrafish = details: in vivo
IGF = tested on: IGF; design: key: ↑: Up arrows indicate up-regulation; ↓: down arrows indicate down-regulation; —: horizontal line indicates no change; details: zebrafish, in vivo
[3] = tested on: choroidal neovascularization (CNV) in zebrafish; test: Hypoxia-induced choroidal neovascularization (CNV) model, Phy-V staining of treated zebrafish; format: in vivo
PEDF = tested on: PEDF; design: key: ↑: Up arrows indicate up-regulation; ↓: down arrows indicate down-regulation; —: horizontal line indicates no change; details: zebrafish, in vivo
[4] = CoCl2 + 20 μM Celebrex-treated 5 dpf zebrafish

- effect on eye development (zebrafish eye (retina); [4]): did not delay eye development
SMILES: Cc1ccc(-c2cc(C(F)(F)F)nn2-c2ccc(S(N)(=O)=O)cc2)cc1 [Celebrex]
- retinal structure (zebrafish eye (retina); [4]): normal 5 layer structure with no vessels present in the retina
- dose response in eZ-CNV ELISA (CoCl2 induced CNV [1]): typical dose response curve
- optimal concentration based on the dose response curve (CoCl2 induced CNV [1]): 20 µM
- Mean ± SE (% CNV) (CoCl2 induced CNV [2]; Celebrex 10 μM): 37.0 ± 16.1%
- Mean ± SE (% CNV) (CoCl2 induced CNV [2]; Celebrex 15 μM): 22.1 ± 12.4%
- % CNV (per experiment) (CoCl2 induced CNV [2]; Celebrex 20 μM): 0% and 10.0%
- Mean ± SE (% CNV) (CoCl2 induced CNV [2]; Celebrex 20 μM): 3.3 ± 3.3%
- abnormal neovascularization in the choroidal vessel plexus (CoCl2 induced CNV [2]): prevented abnormal neovascularization
- inhibition of CoCl2 induced CNV after post-treatment (CoCl2 induced CNV [2]; post-treatment, drug added 24 hours after CoCl2): limited inhibition
- CNV after pre-treatment (CoCl2 induced CNV [2]; pre-treatment, high concentration of drug 4 hours, withdrawn before CoCl2 induction): low percentage of CNV zebrafish, however, the CNV defects were severe

SMILES: [Cl-].[Cl-].[Co+2] [CoCl2]
- retinal structure / vessels in the retina (zebrafish eye (retina); zebrafish, in vivo): abnormal vessels formed in the retina; also recorded: abnormal retinal structure
- HIF-1α expression (RT-PCR) (HIF-1α): ↑ and ↓ and —
- PGK expression (RT-PCR) (PGK): —
- VEGF expression (RT-PCR) (VEGF): — and ↑
- VEGF expression (RT-PCR), in words (VEGF): Up-regulation
- lethality (zebrafish): instantaneous death
- zebrafish dying (zebrafish): 100%
- IGF expression (RT-PCR) (IGF): —
- frequency or severity of CNV ([3]; zebrafish, in vivo): did not increase the frequency or severity of CNV
- number of treated zebrafish exhibiting CNV specific phenotype ([3]; zebrafish, in vivo): 64
- treated zebrafish exhibiting CNV specific phenotype ([3]; zebrafish, in vivo): 63.6±11.1%
- vessel growth ([3]; zebrafish, in vivo): did not stimulate vessel growth
- PEDF expression (RT-PCR) (PEDF): —

SMILES: O=c1c(-c2ccc(O)cc2)coc2cc(O)cc(O)c12 [Genistein]
- dose response in eZ-CNV ELISA (CoCl2 induced CNV [1]): only showed preventative effects at a low concentration
- optimal concentration based on the dose response curve (CoCl2 induced CNV [1]): 0.0001 µM
- Mean ± SE (% CNV) (CoCl2 induced CNV [2]; Genistein 0.0001 μM): 20.8%
- % CNV (per experiment) (CoCl2 induced CNV [2]; Genistein 0.001 μM): 36.8% and 39.1%
- CNV zebrafish (number per experiment) (CoCl2 induced CNV [2]; Genistein 0.001 μM): 7 and 9
- Mean ± SE (% CNV) (CoCl2 induced CNV [2]; Genistein 0.001 μM): 38.0%
- % CNV (per experiment) (CoCl2 induced CNV [2]; Genistein 0.01 μM): 23.5%
- CNV zebrafish (number per experiment) (CoCl2 induced CNV [2]; Genistein 0.01 μM): 4
- Mean ± SE (% CNV) (CoCl2 induced CNV [2]; Genistein 0.01 μM): 23.5%
- abnormal neovascularization in the choroidal vessel plexus (CoCl2 induced CNV [2]): prevented abnormal neovascularization

SMILES: CC(C)(S)[C@@H](N)C(=O)O [Penicillamine]
- CNV ([3]; 0.01 μM Penicillamine from 24 hpf, at 5 dpf): CNV was observed
- angiogenesis ([3]; 0.01 μM Penicillamine treatment at the 24 hpf stage): stimulated angiogenesis throughout the zebrafish
- zebrafish developing CNV compared with CoCl2 treatment ([3]; Penicillamine treatment): Fewer zebrafish developed CNV
